Holding throughout (format): functional, cell-based
The subject of one assay is DLD-1. Nature of the assay: Antiproliferative activity against human DLD-1 cells assessed as inhibition of cell growth incubated for 24 hrs by MTT assay. To be noted: DLD-1, 24 h.
The test system of a further assay is HT-29. Nature of the assay: Antiproliferative activity against human HT-29 cells assessed as inhibition of cell growth incubated for 24 hrs by MTT assay. To be noted: HT-29, 24 h. (In general: Tetrazolium dyes change colour on reduction, which living cells bring about.)
The next assay relates to Caco-2. Briefly: Antiproliferative activity against human Caco-2 cells assessed as inhibition of cell growth incubated for 24 hrs by MTT assay. To be noted: Caco-2, 24 h.
A further assay deals with A 172. Briefly: Antiproliferative activity against human A-172 cells assessed as inhibition of cell growth incubated for 24 hrs by MTT assay. To be noted: A 172, 24 h.
The test system of a further assay is A549. Nature of the assay: Antiproliferative activity against human A549 cells assessed as inhibition of cell growth incubated for 24 hrs by MTT assay. To be noted: A549, 24 h.
A short description of assay [1]: Antiproliferative activity against human Tera-1 cells assessed as inhibition of cell growth incubated for 24 hrs by MTT assay. To be noted: Tera-1, 24 h.

A word on the IC50: it is the concentration that inhibits the measured activity by half.

For the compound `c1ccc(Cn2c(SCCc3c[nH]c4ccccc34)nnc2-c2ccncc2)cc1`, the IC50 in the assay on DLD-1 is 25.8 µM; in the assay on HT-29, above 30 µM; in the assay with Caco-2 it was above 30 µM; in the assay on A 172, 8.1 µM; in the assay with A549, 13.9 µM; in assay [1] it was 10.7 µM.

On to `C=CCn1c(SCCc2c[nH]c3ccccc23)nnc1-c1ccncc1`, for which the IC50 (in the assay with DLD-1; with HT-29; with Caco-2; in the assay with A 172; in the assay with A549; in assay [1]) was above 30 µM in each case.

Take `Clc1ccc(-n2c(SCCc3c[nH]c4ccccc34)nnc2-c2ccncc2)cc1`: the IC50 with DLD-1 was 21.8 µM; in the assay on HT-29, above 30 µM; in the assay on Caco-2 it was 25 µM; in the assay on A 172 it was 23.3 µM; in the assay with A549, 18.7 µM; in assay [1], above 30 µM.

Consider `Brc1ccccc1-n1c(SCCc2c[nH]c3ccccc23)nnc1-c1ccncc1`, for which the IC50 in the assay on DLD-1 is above 30 µM; with HT-29, above 30 µM; in the assay on Caco-2, above 30 µM; with A 172, above 30 µM; in the assay with A549, 4 µM; in assay [1] it was above 30 µM.

Consider `O=[N+]([O-])c1ccc(-n2c(SCCc3c[nH]c4ccccc34)nnc2-c2ccncc2)cc1`, for which the IC50 in the assay on DLD-1 was above 30 µM; with HT-29, above 30 µM; in the assay on Caco-2, above 30 µM; in the assay on A 172, 16.9 µM; in the assay with A549, above 30 µM; in assay [1], above 30 µM.

In the case of `CCCn1c(SCCc2c[nH]c3ccccc23)nnc1-c1ccncc1`, the IC50 (in the assay with DLD-1; in the assay on HT-29; with Caco-2; with A 172; in the assay on A549; in assay [1]) was above 30 µM throughout.

For the compound `Clc1cccc(-n2c(SCCc3c[nH]c4ccccc34)nnc2-c2ccncc2)c1`, the IC50 in the assay on DLD-1 is 11 µM; in the assay with HT-29, 7.3 µM; with Caco-2 it was 13.5 µM; with A 172, above 30 µM; in the assay with A549, above 30 µM; in assay [1], above 30 µM.

As for `CCCCn1c(SCCc2c[nH]c3ccccc23)nnc1-c1ccncc1`, the IC50 (with DLD-1; in the assay on HT-29; in the assay with Caco-2; in the assay with A 172; in the assay on A549; in assay [1]) was above 30 µM each time.

For `c1ccc(-n2c(SCCc3c[nH]c4ccccc34)nnc2-c2ccncc2)cc1`, the IC50 in the assay on DLD-1 was 19 µM; in the assay with HT-29 it was above 30 µM; in the assay on Caco-2, above 30 µM; in the assay with A 172, 26.8 µM; with A549, above 30 µM; in assay [1], above 30 µM.

Take `Fc1ccc(-n2c(SCCc3c[nH]c4ccccc34)nnc2-c2ccncc2)cc1`: the IC50 in the assay with DLD-1 was 10.6 µM; with HT-29, 5.8 µM; in the assay on Caco-2, 10.3 µM; in the assay with A 172, above 30 µM; in the assay with A549 it was 8.09 µM; in assay [1] it was above 30 µM.

Turning to `Cc1cccc(C)c1-n1c(SCCc2c[nH]c3ccccc23)nnc1-c1ccncc1`, the IC50 (in the assay on DLD-1; with HT-29; in the assay with Caco-2; in the assay on A 172; in the assay with A549; in assay [1]) was above 30 µM in each case.

As to `Brc1cccc(-n2c(SCCc3c[nH]c4ccccc34)nnc2-c2ccncc2)c1`, the IC50 in the assay on DLD-1 is 15.3 µM; with HT-29 it was 12.2 µM; in the assay with Caco-2 it was 10.5 µM; in the assay on A 172 it was 14.7 µM; with A549, 14.5 µM; in assay [1], 24.6 µM.

For the compound `Cc1ccccc1-n1c(SCCc2c[nH]c3ccccc23)nnc1-c1ccncc1`, the half-inhibitory concentration (IC50) (in the assay with DLD-1; in the assay with HT-29; with Caco-2; in the assay with A 172; in the assay on A549; in assay [1]) was above 30 µM throughout.

Take `O=c1[nH]cc(F)c(=O)[nH]1` [FLUOROURACIL]: the IC50 in the assay with HT-29 worked out at 5.31 µM.

In the case of `Cc1ccc(-n2c(SCCc3c[nH]c4ccccc34)nnc2-c2ccncc2)cc1`, the IC50 in the assay on DLD-1 is 16.5 µM; in the assay with HT-29, above 30 µM; with Caco-2, 17.8 µM; in the assay on A 172, 20.3 µM; in the assay on A549 it was 13.5 µM; in assay [1], above 30 µM.

Values taken from ChEMBL document CHEMBL5257059, “Pyridine-Based 1,2,4-Triazolo-Tethered Indole Conjugates Potentially Affecting TNKS and PI3K in Colorectal Cancer” (ACS Med Chem Lett, 2023).
